The record followed here is patent US20200123147A1, “THIAZOLE COMPOUNDS USEFUL AS PRMT5 INHIBITORS” (Bayer Aktiengesellschaft, priority 2017, published 2020).

SMILES strings stand for the structures. pIC50: −log10 of the molar value.

The test system of experiment [1] is PRMT5 (histone H4 Arg3 SDMA levels in MDA-MB-468 cells). Briefly: In vitro assay 2: quantification of SDMA (symmetric dimethylarginine) expression levels (H4 Arg3) in cancer cells, High-Content Analysis. The class given is cell-based. The conditions noted are these: Homo sapiens, 72 h, SDMA histone H4 (Arg3) average signal intensity per cell. The source says: In Vitro Assay 2: Quantification of SDMA (Symmetric Dimethylarginine) Expression Levels (H4 Arg3) After Small Molecule Treatment of Cancer Cells
The SDMA-assay based on High-Content Analysis (HCA) enables the biological characterization of compounds inhibiting PRMT5. By this assay, substances are benchmarked on their cellular activity to modulate histone H4 Arg3 levels over broad inhibitor concentration ranges.
Cultivated cells of the human mammary gland tumor cell line MDA-MB-468 (ATCC HTB-132) were plated at a density of 2500 cells per well in a 384-well microtiter plate in 20 μL of Roswell Park Memorial Institute (RPMI) 1640 medium supplemented with 1% (v/v) glutamine, 1% (v/v) penicillin, 1% (v/v) streptomycin and 10% (v/v) fetal calf serum. After pre-incubation at 37° C. overnight, test compo unds solubilized in DMSO were added at various concentrations (0 μM, as well as in the range of 0.005 μM-30 μM; the final concentration of the solvent DMSO was 0.5% (v/v)). Cells were incubated at 37° C. for 72 h in the presence of test compounds. Thereafter, cells were fixed with 4% (v/v) paraformaldehyde in phosphate buffered saline (PBS) at room temperature for 1 h, permeabilized using 0.5% (v/v) Triton X™ 100 in PBS for 15 min and blocked with 1% (v/v) bovine serum albumin (BSA) in PBS for 30 min. In the following, cells were incubated with anti-dimethyl-histone H4 (Arg3) symmetric antibody (Millipore #07-947) at RT for 2 h. After a single washing step with blocking solution, cells were incubated with species-specific fluorescent conjugated secondary antibody Alexa Fluor™ 488 (Jackson Immuno Research #111-546-003) at RT for 2 h.
Image acquisition for cells was carried out using the confocal imaging system OPERA® (PerkinElmer). Images were captured using two channels: Hoechst 33342 stain (DNA) and Alexa Fluor™ 488 (SDMA staining); and were analyzed using the MetaXpress® software (Molecular Devices). Exposure times were chosen for individual experiments to prevent saturation and allow for quantification in the linear range. A minimum of 500 cells in 5 field views were analyzed per well using 10× water immersion objective with a two-fold binning.
The image analysis routine was developed in MetaXpress®. The standardized image-analysis module “Count Nuclei” and the images of the DNA-channel were used for nuclei segmentation. The segmented nuclei were filtered for size, shape and signal intensity to exclude possible apoptotic and non-viable cells along with metaphase nuclei. These phenotypes result in overestimated antibody signals, due to their strong chromatin compaction. For further processing, binary object masks were calculated from the segmented and positively selected nuclei. The binary masks served as templates to be superimposed over the images of the SDMA channel. The SDMA average signal intensity per cell was quantified for every image set. The assay raw data were further analyzed by four parameter logistic regression analysis using Genedata's Assay Analyzer® and Condoseo® software to determine the IC50 value for each tested compound.

The target in experiment [2] is T1, PRMT5:MEP50 protein complex (Homo sapiens, UniProt O14744).
T1 construct: FLAG (N); made in house; host or cells: Hi5 insect cells
T1 sequence (O14744 whole entry, species assumed): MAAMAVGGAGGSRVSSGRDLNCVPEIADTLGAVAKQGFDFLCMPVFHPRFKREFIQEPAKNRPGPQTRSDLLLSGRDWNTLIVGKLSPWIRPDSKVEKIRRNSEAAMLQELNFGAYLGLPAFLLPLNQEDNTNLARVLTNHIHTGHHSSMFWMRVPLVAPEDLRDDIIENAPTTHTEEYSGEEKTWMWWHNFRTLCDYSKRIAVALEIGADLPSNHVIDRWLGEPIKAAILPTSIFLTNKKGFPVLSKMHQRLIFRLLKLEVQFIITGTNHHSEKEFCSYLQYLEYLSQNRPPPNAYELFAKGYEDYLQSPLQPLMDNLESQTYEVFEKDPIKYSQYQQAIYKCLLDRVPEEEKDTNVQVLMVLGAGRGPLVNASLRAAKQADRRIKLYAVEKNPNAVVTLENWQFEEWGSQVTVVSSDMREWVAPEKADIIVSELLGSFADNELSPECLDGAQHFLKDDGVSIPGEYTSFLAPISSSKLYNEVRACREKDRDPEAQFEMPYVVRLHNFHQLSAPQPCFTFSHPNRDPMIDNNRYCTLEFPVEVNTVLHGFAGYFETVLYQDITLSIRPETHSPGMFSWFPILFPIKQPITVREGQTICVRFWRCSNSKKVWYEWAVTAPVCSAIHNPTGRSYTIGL
T1 sequence (Q9BQA1 whole entry partner, species assumed): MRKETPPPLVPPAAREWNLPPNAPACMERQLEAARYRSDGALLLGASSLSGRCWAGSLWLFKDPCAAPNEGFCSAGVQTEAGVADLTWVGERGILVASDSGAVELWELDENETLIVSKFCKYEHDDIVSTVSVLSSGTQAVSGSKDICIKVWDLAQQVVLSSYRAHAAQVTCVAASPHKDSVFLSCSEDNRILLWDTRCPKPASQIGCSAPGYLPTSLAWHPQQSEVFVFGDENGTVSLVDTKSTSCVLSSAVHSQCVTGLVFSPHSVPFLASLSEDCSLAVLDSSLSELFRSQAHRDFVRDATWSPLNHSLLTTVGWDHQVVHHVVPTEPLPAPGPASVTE
Kind of experiment: In vitro assay 1: PRMT5 SPA assay ("EAA"). The class given is biochemical. As to conditions: scintillation proximity assay, methylation of biotinylated H4(1-24) peptide, 3H-SAM, 60 min at 22° C. The source says:
In Vitro Assay 1: PRMT5 SPA Assay (“EAA”)
PRMT5 inhibitory activities of the compounds described in the present invention were quantified using a scintillation proximity assay (SPA) which measures methylation by the enzyme of a synthetic, biotinylated peptide corresponding to the N-terminal sequence of Histone H4 (a.a. 1-24). The peptide of sequence […]-K(Btn)-amide is commercially available (e.g. from Biosyntan) and will be herein referred to as H4(1-24). The PRMT5:MEP50 protein complex used in the assay was produced in house following standard protocols. Briefly, full length PRMT5 and MEP50 constructs respectively tagged with N-terminal FLAG and 6× His sequences were co-expressed in Hi5 insect cells, and the recombinant protein complex was purified by FLAG affinity and size exclusion chromatography.
In a typical assay 11 different concentrations of each compound (0.1 nM, 0.33 nM, 1.1 nM, 3.8 nM, 13 nM, 44 nM, 0.15 μM, 0.51 μM, 1.7 μM, 5.9 μM and 20 μM) were tested in duplicate within the same microtiter plate. To this end, 100-fold concentrated compound solutions (in DMSO) were previously prepared by serial dilution (1:3.4) of 2 mM stocks in a clear low volume 384-well source microtiter plate (Greiner Bio-One), from which 50 nl of compounds were transferred into a white low volume test microtiter plate from the same supplier. Subsequently, 2.5 μL PRMT5 in aqueous assay buffer [20 mM Bicine pH 8.0 (Alfa Aesar), 7.5 mM Tris(2-carboxyethyl) phosphine hydrochloride (TCEP, Sigma), 0.1% (w/v) bovine gamma globuline (BGG, Sigma), 0.002% (v/v) Tween-20 (Sigma)] were added to the compounds in the test plate to a final enzyme concentration of—typically—7.5 nM (this parameter was adjusted depending on the activity of the enzyme lot in order to be within the linear dynamic range of the assay). The samples were then incubated for 15 min at 22° C. to allow pre-equilibration of the putative enzyme-inhibitor complexes before the start of the methylation reaction, which was initiated by the addition of 2.5 μL 2-fold concentrated solution (in assay buffer) of “cold” S-Adenosyl-L-Methionine (SAM, Sigma, final concentration: 0.5 μM), tritiated 3H-SAM (Perkin Elmer, final concentration: 0.5 μM) and H4(1-24) peptide substrate (final concentration: 0.06 μM). The resulting mixture (5 μL final volume) was shortly centrifuged (2 min., 1500 rpm) and incubated at 22° C. during 60 min. Thereupon the reaction was stopped by adding 3 μL of Streptavidin PS SPA imaging beads (Perkin Elmer, final concentration of 0.375 μg/μL) and “cold” SAM (AK Scientific, 250 μM final concentration) for non-specific binding reduction. Plates containing the stopped reaction were sealed with transparent adhesive foil (Perkin Elmer), centrifuged (2 min., 1500 rpm), and further incubated either 1 h at 22° C. or overnight at 4° C. in order to allow the SPA signals to develop. Subsequently, the amount of product was evaluated by measuring the energy transfer from the β-particles emitted by the 3H-labeled substrate to the Europium scintillator co-polymerized in the polystyrene matrix of the PS imaging beads, using the standard settings for this purpose of a Viewlux (Perkin-Elmer) CCD plate imaging device (emission filter 613/55 (IFP).
The resulting scintillation counts were taken as indicator for the amount of methylated peptide per well. The data were normalised using two sets of control wells (typically 16 each) for high—(=enzyme reaction with DMSO instead of test compound=0%=minimum inhibition) and low—(=all assay components without enzyme=100%=maximum inhibition) PRMT5 activity. IC50 values were calculated by fitting the normalized inhibition data to a 4-parameter logistic equation using the “Screener” analysis software from Genedata.

Broadly, the pIC50 is the IC50 on a negative log10 scale, so that one unit is a factor of ten. In the case of `CCn1ccc(NC(=O)c2csc(Nc3ccc(Cl)cc3)n2)n1` [Example 15, 2-[(4-Chlorophenyl)amino]-N-(1-ethyl-1H-pyrazol-3-yl)-1,3-thiazole-4-carboxamide], the pIC50 in experiment [1] was at most 4.52; in experiment [2], 6.40. Turning to `O=C(Nc1cc(-c2ccccc2)[nH]n1)c1csc(Nc2ccc(Cl)cc2)n1` [Example 1, 2-[(4-Chlorophenyl)amino]-N-(5-phenyl-1H-pyrazol-3-yl)-1,3-thiazole-4-carboxamide], the values for the pIC50 in experiment [1] and in experiment [2] were at most 4.52 and 7.26, respectively. As to `Cc1ccc(Nc2nc(C(=O)Nc3cc(C(C)(C)C)on3)cs2)cc1Cl` [Example 18, N-(5-tert-Butyl-1,2-oxazol-3-yl)-2-[(3-chloro-4-methylphenyl)amino]-1,3-thiazole-4-carboxamide], the pIC50 in experiment [1] was at most 4.52; in experiment [2] it was 6.09. Consider `O=C(Nc1cc(C2CC2)n[nH]1)c1csc(Nc2ccccc2)n1` [Example 14, N-(3-Cyclopropyl-1H-pyrazol-5-yl)-2-(phenylamino)-1,3-thiazole-4-carboxamide], for which the pIC50 was 4.73 in experiment [1] and 6.52 in experiment [2]. In the case of `CC(C)(C)c1cc(NC(=O)c2csc(Nc3ccccn3)n2)no1` [Example 2, N-(5-tert-Butyl-1,2-oxazol-3-yl)-2-(pyridin-2-ylamino)-1,3-thiazole-4-carboxamide], the pIC50 in experiment [1] was 5.61; in experiment [2] it was 7.11.

Take `CCN(CC)CCOc1cc(NC(=O)c2csc(Nc3ccccc3)n2)ccc1-c1ccc(C)cc1` [Example 22, N-{2-[2-(Diethylamino)ethoxy]-4′-methylbiphenyl-4-yl}-2-(phenylamino)-1,3-thiazole-4-carboxamide]: the pIC50 was 4.63 in experiment [1] and 6.03 in experiment [2]. For `CC(C)(C)c1cc(NC(=O)c2csc(Nc3ccc(Cl)cc3)n2)no1` [Example 4, N-(5-tert-Butyl-1,2-oxazol-3-yl)-2-[(4-chlorophenyl)amino]-1,3-thiazole-4-carboxamide], the pIC50 in experiment [1] was 4.68; in experiment [2], 6.98. For `CC(C)(C)c1cc(NC(=O)c2csc(Nc3ccc(Cl)c(Cl)c3)n2)no1` [Example 21, N-(5-tert-Butyl-1,2-oxazol-3-yl)-2-[(3,4-dichlorophenyl)amino]-1,3-thiazole-4-carboxamide], the pIC50 is 4.57 in experiment [1] and 5.86 in experiment [2].

Regarding `CC(C)(C)c1cc(NC(=O)c2csc(Nc3ccc(F)cc3)n2)no1` [Example 7, N-(5-tert-Butyl-1,2-oxazol-3-yl)-2-[(4-fluorophenyl)amino]-1,3-thiazole-4-carboxamide], the values for the pIC50 in experiment [1] and in experiment [2] were 4.75 and 6.83, respectively.

Take `O=C(NCCCCN1CCc2ccccc2C1)c1csc(Nc2ccc(Cl)cc2)n1` [Example 17, 2-[(4-Chlorophenyl)amino]-N-[4-(3,4-dihydroisoquinolin-2(1H)-yl)butyl]-1,3-thiazole-4-carboxamide]: the values for the pIC50 in experiment [1] and in experiment [2] were 5.00 and 6.23, respectively. As for `Cc1c(NC(=O)c2csc(Nc3ccc(Cl)cc3)n2)noc1C(C)(C)C` [Example 29, N-(5-tert-Butyl-4-methyl-1,2-oxazol-3-yl)-2-[(4-chlorophenyl)amino]-1,3-thiazole-4-carboxamide], in experiment [2], the pIC50 was 5.01. Compound `CC(C)(C)c1cc(NC(=O)c2csc(Nc3cc(Cl)ccn3)n2)no1` [Example 36, N-(5-tert-Butyl-1,2-oxazol-3-yl)-2-[(4-chloropyridin-2-yl)amino]-1,3-thiazole-4-carboxamide] gave a pIC50 in experiment [2] of 6.98. `COc1ccc2[nH]c(NC(=O)c3csc(Nc4ccc(Cl)cc4)n3)nc2c1` [Example 9, 2-[(4-Chlorophenyl)amino]-N-(5-methoxy-1H-benzimidazol-2-yl)-1,3-thiazole-4-carboxamide]: in experiment [2], the pIC50 was 6.62. As for `Cc1ccc(Nc2nc(C(=O)Nc3cc(C(C)(C)C)on3)cs2)c(F)c1` [Example 41, N-(5-tert-Butyl-1,2-oxazol-3-yl)-2-[(2-fluoro-4-methylphenyl)amino]-1,3-thiazole-4-carboxamide], in experiment [2], the pIC50 was 6.37.
